Data: patent publication US5688654A, “GABA a receptor subtypes and methods for screening drug compounds using imidazoquinoxalines and pyrrolopyrimidines to bind to GABAa receptor subtypes” (Neurogen Corporation, priority 1994, dated 1997)

What was measured:
GABAa receptor subtype = experiment: Drug screening assay: displacement of 3H-Compound 1 from rat cortical tissue (novel GABAa receptor subtype); type: binding; conditions: Table I; 0.5 nM 3H-Compound 1, rat cortical tissue, 20 min at 4° C., buffer with 1 uM Ro 15-1788 and 10 uM muscimol; Ki by Cheng Prusoff
Experimental: The methods for screening drug compounds of the invention using the novel GABAa receptor are illustrated by the following assays for GABAa receptor subtype activity.
Assays were carried out using the tissue preparation described in Thomas and Tallman (J. Bio. Chem. 156: 9838-9842, 1983, J. Neurosci 3: 433-440, 1983). Rat cortical tissue was dissected and homogenized in 25 volumes (w/v) of 0.05M Tris HCl buffer (pH 7.4 at 4° C.). The tissue homogenate was centrifuged in the cold (4°) at 20,000×g for 20'. The supernatant was decanted and the pellet was rehomogenized in the same volume of buffer and again centrifuged at 20,000×g. The supernatant was decanted and the pellet was frozen at -20° C. overnight. The pellet was then thawed and rehomogenized in 25 volume (original wt/vol) of buffer and the procedure was carried out twice. The pellet was finally resuspended in 50 volumes (w/vol of 0.05M Tris HCl buffer containing 1 uM Ro 15-1788. 1 uM sodium ascorbate and 10 uM muscimol (pH 7.4 at 4° C.).
Incubation mixtures contained 400 μl of tissue homogenate. 5μl of 100 nM ligand in above buffer [final ligand concentration was 0.5 nM ^3 H-Compound 1 (specific activity 67 Ci/mmol)], drug or blocker and buffer to a total volume of 1 ml. Incubations were carried for 20 min at 4° C. then were rapidly filtered through GFB filters to separate free and bound ligand. Filters were washed twice with fresh 0.05M Tris HCl buffer (pH 7.4 at 4° C.) and counted in a liquid scintillation counter. 10 μM Compound 3 was added to some tubes to determine nonspecific binding. Data were collected in triplicate determinations, averaged and % inhibition of total specific binding was calculated. Total Specific Binding=Total-Nonspecific. Typically the specific binding represented about 75 to 85% of total binding. In some cases, the amounts of unlabeled drugs was varied and total displacement curves of binding were carried out. Data were convened to a form suitable for the calculation of IC50 and Hill Coefficient (nH). These IC 50's were convened to Ki's using the Cheng Prusoff equation (Cheng and Prussoff, 1973, Biochem. Pharmacol. 22: 3099.).

[1] = system: benzodiazepine binding site; conditions: Tallman et al., 1978; cited from earlier work
known GABAa receptors = conditions: Table II, no method given; cited from earlier work

SMILES | Ki (GABAa receptor subtype) [nM] | effect on benzodiazepine binding / on its enhancement by GABA agonists (in words) [1] | Ki (known GABAa receptors) [nM]
CCOc1ccc(-n2c(=O)c3c[nH]c4cc(C)ccc4n-3c2=O)cc1 [Compound 4, 2-(4-Ethoxyphenyl)-7-methyl-imidazo[1,5,a]quinoxaline-1,3(2H,5H)-dione] | 0.5 | – | –
CCCOc1ccc(-n2c(=O)c3c[nH]c4ccccc4n-3c2=O)cc1 [Compound 3, 2-(4-Propyloxyphenyl)imidazo[1,5,a]quinoxaline-1,3(2H,5H)-dione] | 0.9 | – | –
CCOc1ccc(-n2c(=O)c3c[nH]c4ccccc4n-3c2=O)cc1 [Compound 1, 2-(4-Ethoxyphenyl)imidazo[1,5.a]quinoxaline-1,3(2H,5H)-dione] | 0.5 | – | –
CN1CCc2cc3c(cc2C1C1OC(=O)c2c1ccc1c2OCO1)OCO3 (single isomer, unassigned; (-)) [(-) bicuculline] | – | much less active | –
CCOC(=O)c1ncn2c1CN(C)C(=O)c1cc(F)ccc1-2 [Flumazenil] | 7500 | – | 1
CC(C)(C)OC(=O)c1ncn2c1[C@@H]1CCCN1C(=O)c1c(Br)cccc1-2 [Bretazenil] | 15000 | – | 1
CN1C(=O)CN=C(c2ccccc2)c2cc(Cl)ccc21 [Diazepam] | 5000 | – | 6
COc1cccc(-c2ncc3[nH]c4c(c3n2)CCCC4)c1 [Compound 7, 2-(3-Methoxyphenyl)-6,7,8,9-tetrahydro-5H-indolo[3.2-d]-pyrimidine] | 50 | – | –
COc1cccc(-n2c(=O)c3c[nH]c4ccccc4n-3c2=O)c1 [Compound 6, 2-(3-Methoxyphenyl)imidazo[1,5.a]quinoxaline-1,3(2H,5. H)-dione] | 0.55 | – | –
Cc1nnc2n1-c1ccc(Cl)cc1C(c1ccccc1)=NC2 [Alprazelam] | 8000 | – | –
COc1ccc(F)c(-c2ncc3[nH]c4c(c3n2)CCCC4)c1 [Compound 2, 2-(2-Fluoro-5-methoxyphenyl)-6,7,g,9-tetrahydro-5H-indolo[3,2-d]-pyrimidine] | 3.9 | – | –
CCOc1ccc(-n2c(=O)c3cn(C)c4ccccc4n-3c2=O)cc1 [Compound 5, 2-(4-Ethoxyphenyl)-5-methyl-imidazo[1,5,a]quinoxaline-1,3(2H,5H)-dione] | 6 | – | –
Cc1ccc(-c2nc3ccc(C)cn3c2CC(=O)N(C)C)cc1 [Zolpidem] | 2200 | – | 20
CN1CCc2cc3c(cc2C1C1OC(=O)c2c1ccc1c2OCO1)OCO3 (single isomer, unassigned; (+)) [(+) bicuculline] | – | blocked | –
NCCCC(=O)O [GABA, γ-Aminobutyric acid] | – | enhance the binding of benzodiazepines | –
